Test results published in ChEMBL document CHEMBL5046297, “Discovery of a Colon-Targeted Azo Prodrug of Tofacitinib through the Establishment of Colon-Specific Delivery Systems Constructed by 5-ASA-PABA-MAC and 5-ASA-PABA-Diamine for the Treatment of Ulcerative Colitis” (J Med Chem, 2022).
Each block holds one molecule with its values, some of them ahead of it. Activity calls are given as the source filed them. No cut-off for these calls is given here.

Columns and labels:
[1] = Chemical stability in simulated intestinal fluid assessed as parent compound remaining incubated for 12 hrs by LC-MS/MS analysis; assay type: ADME, physicochemical; settings: simulated gi fluid
[2] = Chemical stability in simulated gastric fluid assessed as parent compound remaining incubated for 12 hrs by LC-MS/MS analysis; assay type: ADME, physicochemical; settings: simulated gi fluid
[3] = Chemical stability of compound in pH 1.2 HCl buffer at 100 uM incubated for 24 hrs by HPLC analysis; assay type: physicochemical; settings: pH 1.2, 24 h
[4] = Chemical stability of compound in pH 4.5 PBS buffer at 100 uM incubated for 24 hrs by HPLC analysis; assay type: physicochemical; settings: pH 4.5, 24 h
[5] = Chemical stability of compound in pH 7.4 PBS buffer at 100 uM incubated for 24 hrs by HPLC analysis; assay type: physicochemical; settings: pH 7.4, 24 h
[6] = Prodrug conversion in Sprague-Dawley rat colon content suspension assessed as tofacitinib release measured upto 8 hrs by HPLC analysis; assay type: ADME, tissue-based
[7] = Ratio of prodrug conversion in BALB/c mouse intestine assessed as tofacitinib AUC(0 to 12 hrs) at 22.5 mg/kg, po to prodrug conversion in BALB/c mouse ileum assessed as tofacitinib AUC(0 to 12 hrs) at 22.5 mg/kg, po; assay type: ADME, organism-based; settings: in vivo
[8] = Ratio of prodrug conversion in BALB/c mouse intestine assessed as tofacitinib AUC(0 to 12 hrs) at 22.5 mg/kg, po to prodrug conversion in BALB/c mouse jejunum assessed as tofacitinib AUC(0 to 12 hrs) at 22.5 mg/kg, po; assay type: ADME, organism-based; settings: in vivo
[9] = Acute toxicity in Kunming mouse assessed as change in creatine level in kidney at 2000 mg/kg, po measured for 7 days; assay type: organism-based; settings: in vivo, 168 h, time 7 day
[10] = Acute toxicity in Kunming mouse assessed as change in urea level in kidney at 2000 mg/kg, po measured for 7 days; assay type: organism-based; settings: in vivo, 168 h, time 7 day
[11] = Acute toxicity in Kunming mouse assessed as change in ALT level in liver at 2000 mg/kg, po measured for 7 days; assay type: organism-based; settings: in vivo, 168 h, time 7 day
[12] = Acute toxicity in Kunming mouse assessed as change in AST level in liver at 2000 mg/kg, po measured for 7 days; assay type: organism-based; settings: in vivo, 168 h, time 7 day
[13] = Prodrug conversion in Sprague-Dawley rat assessed as tofacitinib release at 22.5 mg/kg, po measured after 1 hr by HPLC analysis; assay type: ADME, organism-based; settings: in vivo
[14] = Prodrug conversion in Sprague-Dawley rat assessed as Cmax of tofacitinib at 22.5 mg/kg, po measured up to 20 hrs by LC-MS/MS analysis; assay type: ADME, organism-based; design: route oral, dose 22.5 mg/kg, time <=20; settings: in vivo
[15] = Prodrug conversion in Sprague-Dawley rat assessed as Tmax of tofacitinib at 22.5 mg/kg, po measured up to 20 hrs by LC-MS/MS analysis; assay type: ADME, organism-based; settings: in vivo
[16] = Prodrug conversion in Sprague-Dawley rat assessed as AUC (0 to infinity) of tofacitinib at 22.5 mg/kg, po measured up to 20 hrs by LC-MS/MS analysis; assay type: ADME, organism-based; design: route oral, dose 22.5 mg/kg, time <=20; settings: in vivo
[17] = Prodrug conversion in Sprague-Dawley rat assessed as elimination half life of tofacitinib at 22.5 mg/kg, po measured up to 20 hrs by LC-MS/MS analysis; assay type: ADME, organism-based; settings: in vivo
[18] = Prodrug conversion in BALB/c mouse plasma assessed as tofacitinib AUC(0 to 12 hrs) at 22.5 mg/kg, po measured upto 12 hrs by LC-MS/MS analysis; assay type: ADME, organism-based; design: route oral, dose 22.5 mg/kg, time <=12; settings: in vivo
[19] = Ratio of prodrug conversion in BALB/c mouse intestine assessed as tofacitinib AUC(0 to 12 hrs) at 22.5 mg/kg, po to prodrug conversion in BALB/c mouse duodenum assessed as tofacitinib AUC(0 to 12 hrs) at 22.5 mg/kg, po; assay type: ADME, organism-based; settings: in vivo
[20] = Prodrug conversion in BALB/c mouse duodenum assessed as tofacitinib AUC(0 to 12 hrs) at 22.5 mg/kg, po measured upto 12 hrs by LC-MS/MS analysis; assay type: ADME, organism-based; design: route oral, dose 22.5 mg/kg, time <=12; settings: in vivo
[21] = Prodrug conversion in BALB/c mouse jejunum assessed as tofacitinib AUC(0 to 12 hrs) at 22.5 mg/kg, po measured upto 12 hrs by LC-MS/MS analysis; assay type: ADME, organism-based; design: route oral, dose 22.5 mg/kg, time <=12; settings: in vivo
[22] = Prodrug conversion in BALB/c mouse ileum assessed as tofacitinib AUC(0 to 12 hrs) at 22.5 mg/kg, po measured upto 12 hrs by LC-MS/MS analysis; assay type: ADME, organism-based; design: route oral, dose 22.5 mg/kg, time <=12; settings: in vivo
[23] = Prodrug conversion in BALB/c mouse colon assessed as tofacitinib AUC(0 to 12 hrs) at 22.5 mg/kg, po measured upto 12 hrs by LC-MS/MS analysis; assay type: ADME, organism-based; design: route oral, dose 22.5 mg/kg, time <=12; settings: in vivo
Mus musculus [24] = test: Anti-ulcerative colitis activity against oxazolone induced ulcerative colitis Balb/c mouse model assessed as prevention of body weight loss at 1.5 mg/kg, po bid incubated for 24 hrs; assay type: functional, organism-based
Mus musculus [25] = test: Anti-ulcerative colitis activity against oxazolone induced ulcerative colitis Balb/c mouse model assessed as prevention of body weight loss at 1.5 mg/kg, po bid measured after 36 hrs; assay type: functional, organism-based
Mus musculus [26] = test: Anti-ulcerative colitis activity against oxazolone induced ulcerative colitis BALB/c mouse model assessed as improved stool consistency at 1.5 mg/kg, po bid measured after 36 hrs; assay type: functional, organism-based
Mus musculus [27] = test: Anti-ulcerative colitis activity against BALB/c mouse model of oxazolone-induced ulcerative colitis assessed as prevention of oxazolone-induced increase in colon density at 1.5 mg/kg, po bid measured after 4 days; assay type: functional, organism-based; settings: time 4.0 day
Mus musculus [28] = test: Anti-ulcerative colitis activity against BALB/c oxazolone-induced ulcerative colitis mouse model assessed as prevention of oxazolone-induced increase in colon weight at 1.5 mg/kg, po bid measured after 4 days; assay type: functional, organism-based; settings: time 4.0 day
Mus musculus [29] = test: Anti-ulcerative colitis activity against BALB/c oxazolone-induced ulcerative colitis mouse model assessed as prevention of oxazolone-induced increase in shortening of colon length at 1.5 mg/kg, po bid measured after 4 days; assay type: functional, organism-based; settings: time 4.0 day
Mus musculus [30] = test: Anti-ulcerative colitis activity against oxazolone-induced ulcerative colitis BALB/c mouse model assessed as improvement in spleen index at 1.5 mg/kg, po bid measured after 4 days; assay type: functional, organism-based; settings: time 4.0 day
Mus musculus [31] = test: Anti-ulcerative colitis activity against BALB/c oxazolone-induced ulcerative colitis mouse model assessed as prevention of oxazolone-induced edema at 1.5 mg/kg, po by H and E staining based histopathological analysis; assay type: functional, organism-based
Mus musculus [32] = test: Anti-ulcerative colitis activity against BALB/c oxazolone-induced ulcerative colitis mouse model assessed as prevention of oxazolone-induced leukocyte infiltration at 1.5 mg/kg, po by H and E staining based histopathological analysis; assay type: functional, organism-based
Mus musculus [33] = test: Anti-ulcerative colitis activity against BALB/c oxazolone-induced ulcerative colitis mouse model assessed as preserved intestinal mucosal epithelial integrity at 1.5 mg/kg, po by H and E staining based histopathological analysis; assay type: functional, organism-based
Mus musculus [34] = test: Immunosuppressive activity in BALB/c mouse assessed as reduction in CD49+ NK cell count at 1.5 mg/kg, ig bid measured after 4 days by flow cytometry analysis; assay type: functional, organism-based; settings: time 4.0 day
Mus musculus [35] = test: Immunosuppressive activity in BALB/c mouse assessed as reduction in spleen index at 1.5 mg/kg, ig bid measured after 4 days by flow cytometry analysis; assay type: functional, organism-based; settings: time 4.0 day
[36] = Acute toxicity in Kunming mouse assessed as animal death at 2000 mg/kg, po measured for 7 days; assay type: organism-based; settings: in vivo, 168 h, time 7 day
[37] = Acute toxicity in Kunming mouse model assessed as increase in body weight at 2000 mg/kg, po measured for 7 days; assay type: organism-based; settings: in vivo, 168 h, time 7 day
[38] = Toxicity in Kunming mouse assessed as change in liver index at 2000 mg/kg, po measured for 7 days; assay type: organism-based; settings: in vivo, 168 h, time 7 day
[39] = Toxicity in Kunming mouse assessed as change in kidney index at 2000 mg/kg, po measured for 7 days; assay type: organism-based; settings: in vivo, 168 h, time 7 day
[40] = Toxicity in Kunming mouse assessed as change in spleen index at 2000 mg/kg, po measured for 7 days; assay type: organism-based; settings: in vivo, 168 h, time 7 day
[41] = Ratio of prodrug conversion in BALB/c mouse intestine assessed as tofacitinib AUC(0 to 12 hrs) at 22.5 mg/kg, po to prodrug conversion in BALB/c mouse colon assessed as tofacitinib AUC(0 to 12 hrs) at 22.5 mg/kg, po; assay type: ADME, organism-based; settings: in vivo
Mus musculus [42] = test: Anti-ulcerative colitis activity against oxazolone induced ulcerative colitis BALB/c mouse model assessed as improved stool blood at 1.5 mg/kg, po bid measured after 36 hrs; assay type: functional, organism-based

Stability [1]: Stable
Stability [2]: Stable
Stability [3]: Stable
Stability [4]: Stable
Stability [5]: Stable
Drug metabolism [6]: 2.93 mmol/L/h
Structure (SMILES): C[C@@H]1CCN(C(=O)CC#N)C[C@@H]1N(C)c1ncnc2c1ccn2C(=O)N(C)CCN(C)C(=O)OCc1ccc(/N=N/c2ccc(O)c(C(=O)O)c2)c(Cl)c1

Structure (SMILES): C[C@@H]1CCN(C(=O)CC#N)C[C@@H]1N(C)c1ncnc2c1ccn2C(=O)N(C)CCN(C)C(=O)OCc1ccc(/N=N/c2ccc(O)c(C(=O)O)c2)cc1Cl
Ratio AUC [7]: 7.1
Ratio AUC [8]: 4.49
Activity [9]: Non-Toxic
Activity [10]: Non-Toxic
Activity [11]: Non-Toxic
Activity [12]: Non-Toxic
Stability [1]: Stable
Stability [2]: Stable
Stability [3]: Stable
Stability [4]: Stable
Stability [5]: Stable
Drug metabolism [6]: 3.22 mmol/L/h
Drug metabolism [13]: Metabolite_Detected
Cmax [14]: 2490 nM
Tmax [15]: 8 h
AUC [16]: 19.27 µM·h
beta t1/2 [17]: 3.09 h
AUC [18]: 4.5 µM·h
Ratio AUC [19]: 1.48
AUC [20]: 99 µM·h
AUC [21]: 193 µM·h
AUC [22]: 357 µM·h
AUC [23]: 1600 µM·h
Activity (Mus musculus [24]): Active
Activity (Mus musculus [25]): Active
Activity (Mus musculus [26]): Active
Activity (Mus musculus [27]): Active
Activity (Mus musculus [28]): Active
Activity (Mus musculus [29]): Active
Activity (Mus musculus [30]): Active
Activity (Mus musculus [31]): Active
Activity (Mus musculus [32]): Active
Activity (Mus musculus [33]): Active
Activity (Mus musculus [34]): inactive
Activity (Mus musculus [35]): inactive
Activity [36]: Non-Toxic
Activity [37]: Non-Toxic
Activity [38]: Non-Toxic
Activity [39]: Non-Toxic
Activity [40]: Non-Toxic
Ratio AUC [41]: 9.61
Activity (Mus musculus [42]): Active

Stability [1]: Stable
Stability [2]: Stable
Stability [3]: Stable
Stability [4]: Stable
Stability [5]: Stable
Drug metabolism [6]: 2.46 mmol/L/h
Structure (SMILES): COc1cc(COC(=O)N(C)CCN(C)C(=O)n2ccc3c(N(C)[C@H]4CN(C(=O)CC#N)CC[C@H]4C)ncnc32)ccc1/N=N/c1ccc(O)c(C(=O)O)c1

Stability [1]: Stable
Stability [2]: Stable
Stability [3]: Stable
Stability [4]: Stable
Stability [5]: Stable
Drug metabolism [6]: 2.72 mmol/L/h
Structure (SMILES): Cc1cc(/N=N/c2ccc(O)c(C(=O)O)c2)ccc1COC(=O)N(C)CCN(C)C(=O)n1ccc2c(N(C)[C@H]3CN(C(=O)CC#N)CC[C@H]3C)ncnc21
